Laboratory results: publication PMC3004530 (Journal of the American Chemical Society, 2010)

Columns and labels:
HDAC = conditions: cited from earlier work
HDAC6 = HDAC6 (Homo sapiens, UniProt Q9UBN7)
HDACs 1, 2 and 3 = experiment: Mode of inhibition / deacetylation progression; format: biochemical
HDAC8 = HDAC8 (Homo sapiens, UniProt Q9BY41)
HDAC2 = HDAC2 (Homo sapiens, UniProt Q92769); experiment: HDAC2 high-throughput coupled biochemical assay
HDAC1 = HDAC1 (Homo sapiens, UniProt Q13547); experiment: HDAC1 biochemical inhibition assay; conditions: read-out: IC50 HDAC1
HDACs 4-8 = experiment: HDAC biochemical inhibition, HDACs 4-8; conditions: data not shown
HDAC3 = HDAC3 (Homo sapiens, UniProt O15379); experiment: HDAC3 biochemical inhibition assay; conditions: read-out: IC50 HDAC3
Sequence of HDAC3 (O15379 whole entry, species assumed): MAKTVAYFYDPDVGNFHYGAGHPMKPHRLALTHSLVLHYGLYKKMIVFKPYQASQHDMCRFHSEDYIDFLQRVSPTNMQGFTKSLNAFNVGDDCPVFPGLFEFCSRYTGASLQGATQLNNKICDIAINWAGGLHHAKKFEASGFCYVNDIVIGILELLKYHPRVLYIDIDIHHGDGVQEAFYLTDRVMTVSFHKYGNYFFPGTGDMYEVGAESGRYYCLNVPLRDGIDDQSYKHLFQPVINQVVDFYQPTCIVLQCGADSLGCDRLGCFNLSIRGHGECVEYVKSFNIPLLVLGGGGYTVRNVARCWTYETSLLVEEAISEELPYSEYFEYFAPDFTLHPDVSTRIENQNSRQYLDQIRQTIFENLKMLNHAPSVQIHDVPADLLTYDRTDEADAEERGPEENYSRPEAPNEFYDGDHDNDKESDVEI
Sequence of HDAC3 (Q9Y618 395-489 partner limits assumed, species assumed): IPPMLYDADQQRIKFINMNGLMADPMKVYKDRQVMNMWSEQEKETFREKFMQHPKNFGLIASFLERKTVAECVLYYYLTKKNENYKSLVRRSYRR

Sequence of HDAC2 (Q92769 whole entry, species assumed): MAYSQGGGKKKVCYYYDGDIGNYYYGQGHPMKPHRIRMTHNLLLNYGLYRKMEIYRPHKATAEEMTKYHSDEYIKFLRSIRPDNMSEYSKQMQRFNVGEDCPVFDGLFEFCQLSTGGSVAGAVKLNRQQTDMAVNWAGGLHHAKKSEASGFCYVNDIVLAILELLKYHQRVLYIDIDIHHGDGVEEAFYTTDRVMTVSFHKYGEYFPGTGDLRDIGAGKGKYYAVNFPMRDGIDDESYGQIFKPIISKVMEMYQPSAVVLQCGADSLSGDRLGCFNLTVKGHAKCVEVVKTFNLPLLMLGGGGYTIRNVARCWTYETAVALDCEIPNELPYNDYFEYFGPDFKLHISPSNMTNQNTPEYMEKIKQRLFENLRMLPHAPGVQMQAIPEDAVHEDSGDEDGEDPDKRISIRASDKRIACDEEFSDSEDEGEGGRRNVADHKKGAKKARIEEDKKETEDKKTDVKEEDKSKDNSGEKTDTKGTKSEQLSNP
Sequence of HDAC6 (Q9UBN7 whole entry, species assumed): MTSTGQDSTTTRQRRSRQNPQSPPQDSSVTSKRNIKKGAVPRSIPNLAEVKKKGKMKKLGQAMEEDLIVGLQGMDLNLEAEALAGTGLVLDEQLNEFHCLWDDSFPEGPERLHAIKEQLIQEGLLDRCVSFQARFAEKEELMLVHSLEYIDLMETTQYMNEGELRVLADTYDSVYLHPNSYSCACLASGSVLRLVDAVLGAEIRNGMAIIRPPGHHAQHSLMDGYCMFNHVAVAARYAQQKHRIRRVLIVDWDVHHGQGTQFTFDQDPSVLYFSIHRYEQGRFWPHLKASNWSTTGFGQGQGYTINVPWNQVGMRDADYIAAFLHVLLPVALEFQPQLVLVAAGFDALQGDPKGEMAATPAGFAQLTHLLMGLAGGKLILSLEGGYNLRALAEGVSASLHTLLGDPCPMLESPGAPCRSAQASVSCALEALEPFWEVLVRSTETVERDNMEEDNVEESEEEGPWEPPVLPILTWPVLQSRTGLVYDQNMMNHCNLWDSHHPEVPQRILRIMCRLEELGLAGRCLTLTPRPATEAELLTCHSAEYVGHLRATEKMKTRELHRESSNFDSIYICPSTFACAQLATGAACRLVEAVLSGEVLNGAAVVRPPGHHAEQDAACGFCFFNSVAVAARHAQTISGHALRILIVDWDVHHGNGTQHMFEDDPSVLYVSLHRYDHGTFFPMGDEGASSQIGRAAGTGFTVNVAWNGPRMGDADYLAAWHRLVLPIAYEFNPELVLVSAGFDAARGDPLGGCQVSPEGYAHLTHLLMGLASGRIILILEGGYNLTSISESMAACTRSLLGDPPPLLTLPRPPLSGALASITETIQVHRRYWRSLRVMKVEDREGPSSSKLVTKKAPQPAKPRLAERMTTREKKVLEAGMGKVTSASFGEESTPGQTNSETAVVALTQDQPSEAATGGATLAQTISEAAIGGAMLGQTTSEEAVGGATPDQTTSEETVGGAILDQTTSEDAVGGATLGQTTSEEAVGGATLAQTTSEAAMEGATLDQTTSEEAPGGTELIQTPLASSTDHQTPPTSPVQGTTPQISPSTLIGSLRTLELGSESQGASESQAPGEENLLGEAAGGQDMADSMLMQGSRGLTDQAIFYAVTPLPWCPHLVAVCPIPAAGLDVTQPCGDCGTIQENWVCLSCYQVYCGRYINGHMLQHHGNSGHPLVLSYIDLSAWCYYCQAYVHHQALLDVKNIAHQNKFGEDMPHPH
Sequence of HDAC1 (Q13547 whole entry, species assumed): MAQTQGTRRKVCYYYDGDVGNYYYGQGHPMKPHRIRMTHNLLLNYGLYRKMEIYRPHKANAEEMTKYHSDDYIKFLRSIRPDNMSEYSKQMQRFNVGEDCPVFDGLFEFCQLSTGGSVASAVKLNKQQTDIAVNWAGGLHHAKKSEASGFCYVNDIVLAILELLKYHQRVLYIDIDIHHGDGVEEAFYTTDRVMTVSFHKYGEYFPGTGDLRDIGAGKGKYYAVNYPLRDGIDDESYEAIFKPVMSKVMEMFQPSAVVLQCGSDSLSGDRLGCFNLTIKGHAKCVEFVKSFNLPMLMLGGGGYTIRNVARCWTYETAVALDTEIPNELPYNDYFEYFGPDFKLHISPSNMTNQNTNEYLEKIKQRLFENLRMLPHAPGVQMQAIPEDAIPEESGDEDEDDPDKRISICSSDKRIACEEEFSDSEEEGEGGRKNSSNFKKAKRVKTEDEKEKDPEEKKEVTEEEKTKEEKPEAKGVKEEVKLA
Sequence of HDAC8 (Q9BY41 whole entry, species assumed): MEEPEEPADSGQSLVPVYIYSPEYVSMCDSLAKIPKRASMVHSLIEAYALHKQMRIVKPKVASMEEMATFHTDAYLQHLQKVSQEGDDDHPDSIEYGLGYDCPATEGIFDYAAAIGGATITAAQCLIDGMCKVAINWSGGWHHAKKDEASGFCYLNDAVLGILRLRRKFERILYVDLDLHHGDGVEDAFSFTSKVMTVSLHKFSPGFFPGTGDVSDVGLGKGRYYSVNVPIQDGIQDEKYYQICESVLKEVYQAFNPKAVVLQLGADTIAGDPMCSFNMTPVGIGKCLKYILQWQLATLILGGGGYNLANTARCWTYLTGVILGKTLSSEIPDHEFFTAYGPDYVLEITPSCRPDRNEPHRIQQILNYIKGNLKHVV

## CCC(=O)CCCCC[C@@H]1NC(=O)[C@H]2CCCCN2C(=O)[C@H]([C@@H](C)CC)NC(=O)[C@H](Cc2cn(OC)c3ccccc23)NC1=O [Apicidin]
HDAC
  HDAC class selectivity: selectivity for class I HDACs
  potency in HDAC biochemical assay: single digit nanomolar potency

## O=C(CCCCCCC(=O)Nc1ccccc1)NO [SAHA]
HDAC6
  inhibition of HDAC6: inhibits
HDACs 1, 2 and 3
  binding kinetics nature (deacetylation progression linear): fast-on/fast-off
HDAC8
  inhibition of HDAC8: inhibits

## C[C@@H]1CCCCO[C@@H](CN(C)Cc2ccc3c(c2)OCO3)[C@H](C)CN([C@@H](C)CO)C(=O)c2cc(N(C)C)ccc2O1 [entry 1]
HDAC2; compared to lead stereoisomer (2R,5S,6R,12R)-32
  fold improvement in HDAC2 potency: > 10 fold
HDAC2; read-out: IC50 HDAC2
  IC50: 6600 ± 400 nM
HDAC1
  IC50: 2700 ± 300 nM
HDACs 4-8
  activity against HDACs 4-8: inactive
HDAC3
  IC50: 2700 ± 200 nM
